In assay [1] the target is T1, HBV polymerase (Hepatitis B virus genotype D subtype ayw, UniProt P03156).
T1 construct: made in house; host or cells: E. coli
Kind of assay: Inhibitory activities against HBV polymerase (reverse transcriptase activity) in vitro. Format: biochemical. To be noted: read-out: Inhibitory activity of HBV-RT (%); for inhibition at 0.01 µg/mL: 0.01 μg/ml; for inhibition at 0.1 µg/mL: 0.1 μg/ml; for inhibition at 1 µg/mL: 1 μg/ml. An excerpt: Experiment 1:Inhibitory Activities Against HBV Polymerase in vitro
Recently, the inventors of the present invention have produced a recombinant HBV polymerase that is expressed from E.coli transformant, measured its enzyme activity and filed patent applications threrof [Korean Pat. Appl. Nos. 94-3918 and 96-33998].
The inventors have also established a method of measuring the reverse transcriptase activity of HBV polymerase in vitro. The fundamental principle is the same as the ELISA method, and after reacting the substrate with biotin- and DIG-modified nucleotide, a method of recognizing the polymerized substrate as anti-DIG antibody with peroxidase was used.
20 μl of HBV polymerase, 20 μl of reaction mixture and 20 μl of test compound was mixed and reacted at 14° C.~30° C. for 18~24 hours. Then, the inhibitory effect of the test compound against reverse transcriptase activity in the HBV polymerase was examined, compared with the results of control tests without the test compound.

Assay [2] addresses T2, HIV reverse transcriptase (Human immunodeficiency virus type 1 group M subtype B, UniProt P04585).
T2 construct: purchased Boehringer Mannheim
Kind of assay: In vitro inhibition test against HIV reverse transcriptase. Type of assay: biochemical. To be noted: read-out: Inhibitory activity of HIV-RT (%); for inhibition at 0.1 µg/mL: 0.1 μg/ml; for inhibition at 1 µg/mL: 1 μg/ml. The method, then:
Experiment 2: The in vitro Inhibition Test Against HIV Reverse Transcriptase
The inhibitory activity in vitro was measured using a non-radioactive reverse transcriptase assay Kit (Boehringer Mannheim).
At first, 20 μl(40 ng) of HIV-RT was added to the wells, coated with streptavidin and with the addition of 20 μl reaction mixture containing template/primer hybrid poly(A)/oligo(dT)15 and DIG-(digoxigenin)-dUTP, biotin-dUTP and TTP, 20 μl of test compound was added and reacted at 37° C. for 1 hour. The control without test compound was used for the comparison of related activity. Since DNA containing nucleotide labeled with digoxigenin and biotine was prepared by the action of HIV-RT, it was combined with streptavidin coated at the bottom of the wells. After the reaction was completed, remaining impurities were removed by washing each well with 250 μl buffer solution (pH 7.0) for 30 seconds 5 times and with the addition of 200 μl anti-DIG-POD antibody, the mixture was reacted at 37° C. for 1 hour. For the removal of remaining impurities again, the reacting solution was washed with a buffer solution and with the addition of 200 μl ABTS™ each, a substrate of POD(peroxidase), the solution was reacted at room temperature for 30 minutes. The absorbance was read by ELISA reader at 405 nm for the assay of reverse transcriptase activity and its inhibition activity.

The values below come from US6306860A, “2,5-pyridinedicarboxylic acid derivatives” (Dong Wha Pharm. Inc. Co., Ltd., priority 1998, dated 2001).

Counter-ions that a name gives are not always drawn.

T1 sequence (P03156 whole entry): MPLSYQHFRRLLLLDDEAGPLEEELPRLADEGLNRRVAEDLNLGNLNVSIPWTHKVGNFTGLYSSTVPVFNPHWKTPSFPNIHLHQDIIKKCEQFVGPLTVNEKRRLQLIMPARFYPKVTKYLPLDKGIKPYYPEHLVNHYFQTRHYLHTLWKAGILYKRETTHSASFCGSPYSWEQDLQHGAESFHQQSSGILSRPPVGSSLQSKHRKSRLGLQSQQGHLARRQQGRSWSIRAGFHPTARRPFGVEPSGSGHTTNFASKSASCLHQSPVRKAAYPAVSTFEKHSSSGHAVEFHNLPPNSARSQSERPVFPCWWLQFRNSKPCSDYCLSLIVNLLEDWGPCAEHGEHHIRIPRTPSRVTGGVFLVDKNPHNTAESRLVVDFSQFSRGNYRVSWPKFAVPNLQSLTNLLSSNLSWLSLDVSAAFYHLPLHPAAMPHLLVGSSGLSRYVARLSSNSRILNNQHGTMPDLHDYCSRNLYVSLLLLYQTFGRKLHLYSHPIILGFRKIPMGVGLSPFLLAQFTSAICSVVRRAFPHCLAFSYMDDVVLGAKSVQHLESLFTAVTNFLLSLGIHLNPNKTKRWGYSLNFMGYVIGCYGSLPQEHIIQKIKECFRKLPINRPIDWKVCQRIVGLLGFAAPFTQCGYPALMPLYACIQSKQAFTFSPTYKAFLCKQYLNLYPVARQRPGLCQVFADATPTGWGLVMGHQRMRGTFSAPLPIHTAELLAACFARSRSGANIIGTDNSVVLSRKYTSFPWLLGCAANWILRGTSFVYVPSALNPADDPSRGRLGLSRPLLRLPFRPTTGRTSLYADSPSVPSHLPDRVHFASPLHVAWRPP

`CC(C)Nc1cccnc1N1CCN(C(=O)c2ccc(C(=O)NCC3CCCO3)cn2)CC1` (stereo not shown) [Exam. 53, 2-[1-[3-(isopropylamino)-2-pyridyl]piperazin-4-yl-carbonyl]-5-[N-(tetrahydrofuran-2-yl-methyl)carbamoyl]pyridine]: in assay [1], the inhibition at 0.01 µg/mL was determined as 52%, the inhibition at 0.1 µg/mL came to 60% and the inhibition at 1 µg/mL was determined as 74%. Further, in assay [2], the inhibition at 0.1 µg/mL was found to be 59% and the inhibition at 1 µg/mL amounted to 78%.
Turning to `CC(C)Nc1cccnc1N1CCN(C(=O)c2ccc(C(=O)NC3CCOC3=O)cn2)CC1` (stereo not shown) [Exam. 55, 2-[1-[3-(Isopropylamino)-2-pyridyl]piperazin-4-yl-carbonyl]-5-[N-(tetrahydro-2-fuanon-3-yl)carbamoyl]pyridine], in assay [1], the inhibition at 0.01 µg/mL came to 55%, the inhibition at 0.1 µg/mL came out at 69% and the inhibition at 1 µg/mL came out at 79%. In assay [2], the inhibition at 0.1 µg/mL was determined as 31% and the inhibition at 1 µg/mL was determined as 62%.
With `Nc1cccnc1N1CCN(C(=O)c2ccc(C(=O)NC3CCOC3=O)cn2)CC1` (stereo not shown) [Exam. 56, 2-[1-(3-amino-2-pyridyl)piperazin-4-yl-carbonyl]-5-[N-(tetrahydro-2-furanon-3-yl)carbamoyl]pyridine], in assay [1], the inhibition at 0.01 µg/mL was 65%, the inhibition at 0.1 µg/mL is 70% and the inhibition at 1 µg/mL amounted to 82%. Moreover, in assay [2], the inhibition at 0.1 µg/mL amounted to 45% and the inhibition at 1 µg/mL was determined as 74%.
As for `CC(C)Nc1cccnc1N1CCN(C(=O)c2ccc(C(=O)NC3CCSC3=O)cn2)CC1` (stereo not shown) [Exam. 57, 2-[1-[3-(isopropylamino)-2-pyridyl]piperazin-4-yl-carbonyl]-5-[N-(tetrahydro-2-thiophenon-3-yl)carbamoyl]pyridine], in assay [1], the inhibition at 0.01 µg/mL came to 23%, the inhibition at 0.1 µg/mL was found to be 53% and the inhibition at 1 µg/mL is 72%. Moreover, in assay [2], the inhibition at 0.1 µg/mL is 61% and the inhibition at 1 µg/mL amounted to 70%.
The corresponding values for `CC(C)Nc1cccnc1N1CCN(C(=O)c2ccc(C(=O)NCCCN3CCCC3=O)cn2)CC1` [Exam. 58, 2-[1-[3-(isopropylamino)-2-pyridyl]piperazin-4-yl-carbonyl]-5-[N-[3-(2-pyrrolidinon-1-yl)propyl]carbamoyl]pyridine.HCl] are 63%, 72%, 84%, 45% and 63%.
Taken in the same sequence, the figures for `CC(C)Nc1cccnc1N1CCN(C(=O)c2ccc(C(=O)NCCN3CCOCC3)cn2)CC1` [Exam. 59, 2-[1-[3-(isopropylamino)-2-pyridyl]piperazin-4-yl-carbonyl]-5-[N-[2-(morpholin-4-yl)ethyl]carbamoyl]pyridine] were 49%, 60%, 70%, 15% and 61%.
Consider `CCNc1cccnc1N1CCN(C(=O)c2ccc(C(=O)NCCN3CCOCC3)cn2)CC1` [Exam. 60, 2-[1-[3-(ethylamino)-2-pyridyl]piperazin-4-yl-carbonyl]-5-[N-[2-(morpholin4-yl)ethyl]carbamoyl]pyridine.HCl], for which, in assay [1], the inhibition at 0.01 µg/mL worked out at 30%, the inhibition at 0.1 µg/mL was 52% and the inhibition at 1 µg/mL was found to be 66%. In assay [2], the inhibition at 0.1 µg/mL amounted to 55% and the inhibition at 1 µg/mL came out at 73%.
Turning to `CC(C)Nc1cccnc1N1CCN(C(=O)c2ccc(C(=O)NCCN(C)C)cn2)CC1` [Exam. 62, 5-[N-[2-(dimethylamino)ethyl]carbamoyl]-2-[1-[3-(isopropylamino)-2-pyridyl]piperazin-4-yl-carbonyl]pyridine.HCl], in assay [1], the inhibition at 0.01 µg/mL came out at 47%, the inhibition at 0.1 µg/mL came out at 58% and the inhibition at 1 µg/mL was 69%. In addition, in assay [2], the inhibition at 0.1 µg/mL is 63% and the inhibition at 1 µg/mL turned out to be 79%.
For the compound `Cc1cc(NC(=O)c2ccc(C(=O)N3CCN(c4ncccc4NC(C)C)CC3)nc2)n[nH]1` [Exam. 66, 6-[1-[3-(isopropylamino)-2-pyridyl]piperazin-4-yl-carbonyl]-N-(5-methyl-1H-pyrazol-3-yl)nicotinamide], in assay [1], the inhibition at 0.01 µg/mL was determined as 20%, the inhibition at 0.1 µg/mL worked out at 53% and the inhibition at 1 µg/mL is 70%. In assay [2], the inhibition at 0.1 µg/mL is 52% and the inhibition at 1 µg/mL turned out to be 76%.
For the compound `Cc1cc(NC(=O)c2ccc(C(=O)N3CCN(c4ncccc4NC(C)C)CC3)nc2)no1` [Exam. 67, 6-[1-[3-(isopropylamino)-2-pyridyl]piperazin-4-yl-carbonyl]-N-(5-methylisoxazol-3-yl)nicotinamide], in assay [1], the inhibition at 0.01 µg/mL worked out at 25%, the inhibition at 0.1 µg/mL was determined as 50% and the inhibition at 1 µg/mL is 72%. In assay [2], the inhibition at 0.1 µg/mL amounted to 30% and the inhibition at 1 µg/mL came to 58%.
For the compound `Cc1csc(NC(=O)c2ccc(C(=O)N3CCN(c4ncccc4NC(C)C)CC3)nc2)n1` [Exam. 68, 6-[1-[3-(isopropylamino)-2-pyridyl)piperazin-4-yl-carbonyl]-N-(4-methyl-1,3-thiazol-2-yl)nicotinamide], in assay [1], the inhibition at 0.01 µg/mL worked out at 30%, the inhibition at 0.1 µg/mL is 69% and the inhibition at 1 µg/mL turned out to be 81%. Further, in assay [2], the inhibition at 0.1 µg/mL stood at 53% and the inhibition at 1 µg/mL came to 70%.
With `CC(C)Nc1cccnc1N1CCN(C(=O)c2ccc(C(=O)Nc3nncs3)cn2)CC1` [Exam. 69, 6-[1-[3-(isopropylamino)-2-pyridyl]piperazin-4-yl-carbonyl]-N-(1,3,4-thiadiazol-2-yl)nicotinamide], in assay [1], the inhibition at 0.01 µg/mL is 12%, the inhibition at 0.1 µg/mL stood at 47% and the inhibition at 1 µg/mL was determined as 64%. Further, in assay [2], the inhibition at 0.1 µg/mL came out at 35% and the inhibition at 1 µg/mL stood at 67%.
In the case of `CC(C)Nc1cccnc1N1CCN(C(=O)c2ccc(C(=O)Nc3ccccn3)cn2)CC1` [Exam. 70, 6-[1-[3-(isopropylamino)-2-pyridyl]piperazin-4-yl-carbonyl]-N-(2-pyridyl)nicotinamide], in assay [1], the inhibition at 0.01 µg/mL was determined as 26%, the inhibition at 0.1 µg/mL was 55% and the inhibition at 1 µg/mL is 74%. In addition, in assay [2], the inhibition at 0.1 µg/mL stood at 55% and the inhibition at 1 µg/mL was found to be 74%.
With `COc1ccc(NC(=O)c2ccc(C(=O)N3CCN(c4ncccc4NC(C)C)CC3)nc2)cn1` [Exam. 71, 6-[1-[3-(isopropylamino)-2-pyridyl]piperazin-4-yl-carbonyl]-N-(6-methoxy-3-pyridyl)nicotinamide], in assay [1], the inhibition at 0.01 µg/mL amounted to 59%, the inhibition at 0.1 µg/mL was found to be 70% and the inhibition at 1 µg/mL was 83%. For the same compound, in assay [2], the inhibition at 0.1 µg/mL came to 48% and the inhibition at 1 µg/mL came to 74%.
Turning to `CC(C)Nc1cccnc1N1CCN(C(=O)c2ccc(C(=O)Nc3cnccn3)cn2)CC1` [Exam. 72, 6-[1-[3-(isopropylamino)-2-pyridyl]piperazin-4-yl-carbonyl]-N-(pyrazine-2-yl)nicotinamide], in assay [1], the inhibition at 0.01 µg/mL was 16%, the inhibition at 0.1 µg/mL is 53% and the inhibition at 1 µg/mL was 64%. Moreover, in assay [2], the inhibition at 0.1 µg/mL stood at 66% and the inhibition at 1 µg/mL turned out to be 83%.
The corresponding values for `CC(C)Nc1cccnc1N1CCN(C(=O)c2ccc(C(=O)NCc3ccccn3)cn2)CC1` [Exam. 73, 6-[1-[3-(isopropylamino)-2-pyridyl]piperazin-4-yl-carbonyl]-N-(2-pyridylmethyl)nicotinamide.HCl] are 53%, 62%, 77%, 57% and 73%.
Consider `CCNc1cccnc1N1CCN(C(=O)c2ccc(C(=O)NCc3ccccn3)cn2)CC1` [Exam. 74, 6-[1-[3-(ethylamino)-2-pyridyl]piperazin-4-yl-carbonyl]-N-(2-pyridylmethyl)nicotinamide], for which, in assay [1], the inhibition at 0.01 µg/mL amounted to 19%, the inhibition at 0.1 µg/mL was 56% and the inhibition at 1 µg/mL is 70%. Further, in assay [2], the inhibition at 0.1 µg/mL was found to be 61% and the inhibition at 1 µg/mL was determined as 80%.
